This is an account of results in patent publication US7744936B2, “Method for preparing extract from wild ginseng showing anticancer activity and the composition comprising the same” (Seocksanteo Medical Co., Ltd., priority 2004, dated 2010).

Molecules are shown by their SMILES. ≈ marks a conversion by molar mass, not a printed value.

For test [1], the system named is MDA-MB-231 (human breast cancer cell line). In words: MTT cell cytotoxicity on MDA-MB-231 cells. Format: cell-based. Particulars: 48 hours, adriamycin, read-out: IC50, cytotoxic effect on MDA-MB-231 cells. On the procedure:
(§1) U937 cells (human leukemia cell line), A549 cells (human lung cancer cell line) and MDA-MB-231 (human breast cancer cell line) cells were grown on the culture dish having 100 mm diameter (TPP Co., Ltd., Switzerland) in RPMI1640 (Gibco BRL Co., Ltd., USA), supplemented with 10% fetal bovine serum which was inactivated at 37° C. in 5% CO2 and 95% air condition in a humidified incubator. […] Cells on […] culture dish were treated with 500 μl of trypsin-EDTA (Gibco BRL Co., Ltd., U.S.A.) to separate from the dish and 10 ml of fresh medium was added thereto so as to neutralize trypsin-EDTA solution and obtain cell suspension. 1×10^4 cells/well were seeded in 96-well plate and after 24 hours incubation. […] The plate was incubated for 20 minutes at room temperature and then UV absorbance the samples was measured by microplate reader (ELISA reader, DENLEY Co., Japan) to calculate the cell viability at 570 nm. The cell viability rate of negative control group treated with only medium was calculated as a 100% and those of other sample and positive control were calculated. […] The measured absorbance showing the reduced amount of existing cellular enzyme in MTT was proportioned to survival cell density. […]

Test [2] deals with A549 cells (human lung cancer cell line). In words: MTT cell cytotoxicity on A549 cells. Format: cell-based. The settings on record: 48 hours, adriamycin, read-out: IC50, cytotoxic effect on A549 cells (text, printed A5497). How it is done:
as §1

The test system of test [3] is U937 cells (human leukemia cell line). In words: MTT cell cytotoxicity on U937 cells. Format: cell-based. Particulars: U-937, 48 hours, adriamycin, read-out: IC50, cytotoxic effect on U937 cells. On the procedure:
as §1

Test [4] deals with splenic leucocytes. In words: Immunostimulating effect on splenic leucocytes (flow cytometry). Format: cell-based, BALB c mouse. Particulars: 3 days. How it is done: To determine the immunostimulating effect of the extract of the present invention, splenic leucocytes (1×10^6 cells/ml) of BALB c mouse were suspended in RPMI1640 medium (Gibco BRL Co., Ltd., USA) supplemented with 100 μg/ml of streptomycin, 100 U/ml of penicillin and 10% fetal bovine serum, and treated with 200 μl/ml of the extracts of Comparative Example 1, 2 and Example 1, 2, respectively. The solution was incubated at 37° C. in 5% CO2 and 95% air condition in a humidified incubator for 3 days and the formation of leucocytes was determined by Flow cytometry. 200 μg/ml of adriamycin treatment group was used as control group.
Background: In flow cytometry, cells or beads pass a laser one at a time.

Test [5] concerns Lewis lung carcinoma cells. As to the kind of experiment: Inhibition of tumor volume increase, Lewis lung carcinoma in mice. Format: in vivo, BDF-1 male mice. Particulars: 0.5 mg/mouse intraperitoneally, 2 weeks. On the procedure:
To determine the inhibitory effect on the volumetric increase of cancer cell, following experiment was performed by modifying the procedure disclosed in the literature (Teruhiro et al., Cancer Res., 56, pp 2809-14, 1996).
Lewis lung carcinoma cells (1×10^6 cells/well) which had been sub-cultured in vivo of experimental mouse and adjusted the concentration to 1×10^6 cells/well, was injected into the left armpit of BDF-1 male mice (6-week-old). After 24 hours, adriamycin in the concentration of 0.5 and 1 mg/mouse, and the extracts prepared in Comparative Example 1, 2 and Example 1, 2 in the concentration of 50 and 100 μl/mouse were injected into the mice intraperitoneally. The injection of samples was maintained for 2 weeks until the tumor volume of non-treatment group used as control group become to 2 cm^3. After 2 weeks, the tumor volume was calculated by using following mathematical formulae 1 and 2 to measure the inhibition rate of tumor volume.
[formula] L (cm): Length of the tumor W^2 (cm^2): Width of the tumor
[formula] A: Tumor volume (cm^3) of control group B: Tumor volume (cm^3) of sample treatment group

Consider `COc1cccc2c1C(=O)c1c(O)c3c(c(O)c1C2=O)C[C@@](O)(C(=O)CO)C[C@@H]3O[C@H]1C[C@H](N)[C@H](O)[C@H](C)O1` [Adriamycin, adriamycin], for which the IC50 in test [1], in test [2] and in test [3] was 3 mg/L (≈ 5.52 µM) in each case. Further, the “Decrease of immunity” value in test [4] (200 μg/ml adriamycin) was found to be 26.1%. In addition, the “Increase rate of lymphocyte (%)” value in test [4] (concentration 200 μg/ml) is recorded as −21.6%. Also, the “Inhibition effect (%) on tumor volume” value in test [5] amounted to 31.20 ± 8.05%.

One may read the IC50 as the concentration at which inhibition is half-maximal.
